We go through one compound from patent US20120121753A1, “COMPOSITIONS AND METHODS FOR PREVENTION AND TREATMENT OF OBESITY AND OBESITY RELATED METABOLIC SYNDROME” (JINIS BIOPHARMACEUTICALS CO., priority 2009, published 2012).

Molecules are shown by their SMILES.

The test system of series [1] is gastric and pancreatic lipase. As to conditions: background statement; cited from earlier work.
The test system of another series is Male SD rats. In words: Effect of FARM3 on diet-induced obesity (4 weeks, obese rats). The following applies: 4 weeks of treatment. The format is in vivo, rat. From the text:
The 3 month old male SD rats were given high-fat feed (described above) for 8 weeks to develop diet-induced obesity with average body weight of 425 g. The rats were randomly divided into groups (n=14 per group) and received fermented yogurt or drug under continued high-fat diet conditions: 3179 group (high fat diet with yogurt fermented by L. acidophilus KCTC 3179 strain), FARM3 group (high fat diet with yogurt fermented by FARM3 mutant), Orlistat™ (high fat diet with Xenical™ in an amount of 200 mg/kg diet).
The 3 month old male SD rats were given high-fat feed for 8 weeks to develop diet-induced obesity with average body weight of 425 g. The diet-induced obese rats were administered daily yogurt fermented with wild-type Lactobacillus 3179 (∘, high fat diet with yogurt fermented by L. acidophilus KCTC3179 strain), yogurt fermented with FARM3 ([…], high fat diet with yogurt fermented by FARM3) or Orlistat™ (Δ, high fat diet with Xenical™ 200 mg/kg diet) under continued high-fat diet condition for 4 weeks.

In the case of `CCCCCCCCCCC[C@@H](C[C@@H]1OC(=O)[C@H]1CCCCCC)OC(=O)[C@H](CC(C)C)NC=O` [Orlistat™, Orlistat], in series [1], the “reduction of dietary fat absorption” value is “approximately 30%”. Besides, the oily feces result with Male SD rats is “oily feces”.
